Measured values: patent US11779530B2, “Composition for the permanent deformation of hair having reduced odor” (Noxell Corporation, priority 2016, dated 2023)

Assay: distribution coefficient log P (octanol/water) of raw materials
Type: physicochemical
Settings: raw material of one-component malodor suppressant system
Text: In the fields of organic and medicinal chemistry, a distribution (P) coefficient is the ratio of concentrations of a compound in the two phases of a mixture of two immiscible solvents at equilibrium. […] One of the solvents chosen is water while the second is octanol. […] The partition coefficient is the ratio of concentrations of un-ionized compound between the two solutions. The logarithm of the ratio of the concentrations of the un-ionized solute in the solvents is called log P:
[formula] The log P (octanol/water) is referred hereinafter as “log P”, unless otherwise specified.

Row | Compound | log P (octanol/water)
1 | CCCCCCCCCCCCCC(=O)OC(C)C [S1, isopropylmyristate] | 7.41
2 | CC1COCc2cc3c(cc21)C(C)(C)C(C)C3(C)C (stereo not drawn) [S3, Galaxolide] | 5.93
3 | Operanide [S4] | 4.90
